# From the supplement of paper PMC11451515
# Test system: P12-Ichikawa
# Assay: cell viability relative to DMSO control; higher = less cytotoxic
# Details: 48 h
# How it was run: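 Before seeding, each leukemia line was adapted for at least four passages in each medium. NOMO1 or SEM cells (500 cells/well) and P12-Ichikawa cells (1000 cells/well) went into 1536-well plates at 5 μl, then received library compounds in DMSO by pin dosing across 11 threefold concentrations, 47 μM to 0.79 nM. Readout was CellTiter-Glo One luminescence after 48 h at 37°C, and viability is given as a per-plate percentage of DMSO wells, with cell-free wells as background.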
# [1] = HPLM + 10% dialyzed FBS, 0.000781 µM
# [2] = HPLM + 10% dialyzed FBS, 0.00234 µM
# [3] = HPLM + 10% dialyzed FBS, 0.00702 µM
# [4] = HPLM + 10% dialyzed FBS, 0.0211 µM
# [5] = HPLM + 10% dialyzed FBS, 0.0632 µM
# [6] = HPLM + 10% dialyzed FBS, 0.19 µM
# [7] = HPLM + 10% dialyzed FBS, 0.569 µM
# [8] = HPLM + 10% dialyzed FBS, 1.71 µM
# [9] = HPLM + 10% dialyzed FBS, 5.12 µM
# [10] = HPLM + 10% dialyzed FBS, 15.4 µM
# [11] = HPLM + 10% dialyzed FBS, 46.1 µM
# [12] = RPMI 5 mM glucose + 10% FBS, 0.000781 µM
# [13] = RPMI 5 mM glucose + 10% FBS, 0.00234 µM
# [14] = RPMI 5 mM glucose + 10% FBS, 0.00702 µM
# [15] = RPMI 5 mM glucose + 10% FBS, 0.0211 µM
# [16] = RPMI 5 mM glucose + 10% FBS, 0.0632 µM
# [17] = RPMI 5 mM glucose + 10% FBS, 0.19 µM
# [18] = RPMI 5 mM glucose + 10% FBS, 0.569 µM
# [19] = RPMI 5 mM glucose + 10% FBS, 1.71 µM
# [20] = RPMI 5 mM glucose + 10% FBS, 5.12 µM
# [21] = RPMI 5 mM glucose + 10% FBS, 15.4 µM
# [22] = RPMI 5 mM glucose + 10% FBS, 46.1 µM
# [23] = RPMI 5 mM glucose + 10% dialyzed FBS, 0.000781 µM
# [24] = RPMI 5 mM glucose + 10% dialyzed FBS, 0.00234 µM
# [25] = RPMI 5 mM glucose + 10% dialyzed FBS, 0.00702 µM
# [26] = RPMI 5 mM glucose + 10% dialyzed FBS, 0.0211 µM
# [27] = RPMI 5 mM glucose + 10% dialyzed FBS, 0.0632 µM
# [28] = RPMI 5 mM glucose + 10% dialyzed FBS, 0.19 µM
# [29] = RPMI 5 mM glucose + 10% dialyzed FBS, 0.569 µM
# [30] = RPMI 5 mM glucose + 10% dialyzed FBS, 1.71 µM
# [31] = RPMI 5 mM glucose + 10% dialyzed FBS, 5.12 µM
# [32] = RPMI 5 mM glucose + 10% dialyzed FBS, 15.4 µM
# [33] = RPMI 5 mM glucose + 10% dialyzed FBS, 46.1 µM
Structure (SMILES),cell viability [1],cell viability [2],cell viability [3],cell viability [4],cell viability [5],cell viability [6],cell viability [7],cell viability [8],cell viability [9],cell viability [10],cell viability [11],cell viability [12],cell viability [13],cell viability [14],cell viability [15],cell viability [16],cell viability [17],cell viability [18],cell viability [19],cell viability [20],cell viability [21],cell viability [22],cell viability [23],cell viability [24],cell viability [25],cell viability [26],cell viability [27],cell viability [28],cell viability [29],cell viability [30],cell viability [31],cell viability [32],cell viability [33]
CN1\C(=C(O)/C2=C(C=C(Cl)S2)[S+]1([O-])=O)C(=O)NC3=NC=CC=C3,125%,123%,118%,107%,122%,119%,113%,112%,110%,104%,100%,124%,125%,118%,116%,128%,114%,121%,128%,123%,118%,106%,121%,119%,125%,115%,114%,118%,121%,117%,104%,98.1%,96.2%
COC1=C(CC=C(C)C)C2=C(\C=C/C(=O)O2)C=C1,84.2%,109%,126%,121%,110%,114%,97.7%,87.5%,69.8%,65.7%,58.8%,96.9%,96.6%,116%,116%,106%,104%,107%,105%,80.1%,81.9%,54.7%,101%,123%,109%,112%,112%,109%,98.1%,92.4%,75.2%,76.3%,55.7%
NC(=O)Cc1cccc(C(=O)c2ccccc2)c1N,101%,103%,103%,92.6%,110%,111%,103%,106%,97.7%,98.6%,95.6%,100%,96.6%,102%,86.9%,106%,94.3%,97%,96.2%,99%,85.3%,82.9%,102%,101%,101%,85.2%,96.1%,98.3%,101%,99.3%,101%,87.7%,85.2%
C[C@@H](Oc1ccc2[nH]nc(/C=C/c3cnn(CCO)c3)c2c1)c1c(Cl)cncc1Cl,91.7%,88.7%,93.6%,94.2%,94.2%,86.2%,83.9%,88.3%,86.2%,12.2%,51.3%,85.9%,89.8%,89.4%,94.3%,100%,89.5%,93.9%,89.7%,75.9%,19.3%,38%,78.3%,92.2%,83.8%,90.3%,94.6%,86.1%,76.7%,86.8%,88.6%,23.5%,41.6%
Cc1ccnc(N[S+](=O)([O-])c2ccc(NC(=O)Nc3ccc([S+](=O)([O-])Nc4nccc(C)n4)cc3)cc2)n1,92.4%,97.5%,104%,108%,102%,47.4%,56.9%,7.44%,8.58%,9.29%,7.33%,87.9%,85.5%,94.6%,106%,114%,58.6%,60.3%,7.51%,7.48%,8.73%,5.6%,86.9%,97.1%,95.4%,101%,102%,46.7%,59.4%,7.71%,7.35%,8.39%,5.02%
CC/C(=C(\c1ccccc1)c1ccc(OCCN(C)C)cc1)c1ccccc1,102%,106%,102%,104%,95.8%,109%,104%,109%,113%,104%,86.3%,99.9%,102%,96.2%,118%,89.7%,102%,104%,99.4%,108%,100%,83.9%,113%,108%,113%,114%,95.3%,112%,117%,117%,104%,102%,76.9%
COc1c(C)c2c(c(O)c1C/C=C(\C)CCC(=O)OCCN1CCOCC1)C(=O)OC2,106%,114%,114%,104%,124%,106%,109%,109%,58.2%,40.1%,35.6%,104%,105%,111%,109%,105%,106%,110%,93.9%,50.2%,30.1%,26%,109%,100%,100%,104%,98.3%,106%,102%,88.3%,57.1%,35.4%,30.3%
CC(C)C[C@@H](C(=O)N[C@H](C(=O)OC1CCCC1)c1ccccc1)[C@H](O)C(=O)NO,109%,111%,112%,114%,108%,108%,104%,105%,95.5%,86.8%,59.7%,103%,119%,114%,113%,107%,116%,110%,93.8%,89.6%,69.8%,37.1%,112%,113%,115%,116%,111%,103%,110%,102%,89%,89.6%,35.9%
CC1(C)CCC(=C(\C1)C2=CC=C(Cl)C=C2)/CN3CCN(CC3)C4=CC(=C(C=C4)C(=O)N[S+]([O-])(=O)C5=CC=C(NCC6CCOCC6)C(=C5)[N+]([O-])=O)OC7=CN=C8[NH]C=CC8=C7,98.6%,108%,104%,102%,98%,98.3%,98.5%,97.5%,83.9%,67%,49%,103%,106%,114%,104%,104%,100%,99.2%,89.6%,96.5%,81.5%,68.1%,100%,103%,101%,105%,96.3%,103%,99%,90.8%,96.1%,78.1%,65.7%
O=C(O)c1nn(Cc2ccc(Cl)cc2Cl)c2ccccc12,94.1%,93%,97.1%,92.5%,89.5%,84%,81.1%,88.9%,89.6%,79.2%,87.1%,87.5%,86.6%,95.3%,85.2%,86.1%,85.7%,84.3%,82.2%,89.5%,85.2%,84.2%,87.6%,79.1%,89.1%,86.4%,81.3%,74%,73.9%,74.4%,81.5%,71.7%,76.9%
O=P1(NCCCl)OCCCN1CCCl (centres undefined),84%,94%,88.4%,91.6%,92.9%,88.1%,95.1%,93.9%,91.8%,62.5%,94.2%,82.8%,76.7%,81.5%,85.6%,88.8%,86.7%,87.9%,86.1%,92%,93.2%,66.7%,77%,77.2%,75.3%,78.1%,84.8%,82.7%,85.9%,85.2%,87.2%,87%,79.8%
O=C1N\N=C(\C[C@@H]2CCN(C2)C(=O)C3CC3)N1C4=CC=C(C=C4)C5=CC=C6OC=CC6=C5,79.6%,82%,83.2%,86.1%,91.9%,81.5%,81%,88.7%,83.7%,83.2%,80.3%,76.3%,77%,77.1%,78.3%,87.6%,75.5%,73.6%,78.8%,82.1%,78.2%,83.9%,83.3%,79.8%,81.6%,84%,93.6%,84.5%,91.1%,80.6%,82.9%,86.3%,85.7%
COc1ccccc1N1CCN(CC(O)COc2cccc3ccccc23)CC1 (centres undefined),119%,123%,127%,117%,125%,132%,116%,121%,120%,106%,109%,,,,,,,,,,,,121%,123%,126%,117%,127%,125%,115%,109%,107%,90.4%,82.4%
Oc1ccc(-c2nc(-c3ccncc3)c(-c3ccc(F)cc3)[nH]2)cc1,115%,112%,118%,114%,124%,120%,130%,115%,64.3%,13%,5.07%,99.2%,99.7%,117%,111%,111%,126%,117%,115%,98.8%,60.7%,2.19%,103%,112%,113%,119%,123%,113%,130%,116%,82.7%,46%,6.46%
Cc1ccc(Nc2nccc(N(C)c3ccc4c(C)n(C)nc4c3)n2)cc1[S+](N)(=O)[O-],105%,102%,105%,110%,108%,114%,113%,111%,104%,91.9%,20.8%,106%,115%,109%,109%,113%,116%,113%,111%,120%,78.4%,23.7%,99.7%,101%,104%,102%,102%,99.9%,110%,107%,108%,83.3%,27.8%
